Source: patent US10206900B2, “Treatments for fibrotic diseases” (MOR RESEARCH APPLICATIONS LTD., priority 2013, dated 2019)

What was measured:
MMP-9 = MMP-9 activity by gelatin zymography in RPE cell supernatants; type: cell-based; settings: RPE cells, pretreatment 1 μM, TGF-β1 2.5 ng/ml, 24 hours; TGF-β1 alone 3.2 fold
Description: (§1) FIGS. 2A-2C TAK1 regulates RPE cells EMT phenotype upon TGF-β stimulation. FIG. 2A: RPE cells were serum-starved for 16 hours, pretreated with 5Z-7-oxozeaenol (1 μM) or left untreated for 1 hour. The cells were then treated with TGF-β1 (2.5 ng/ml) as described herein for 24 h and immunostained with α-SMA antibodies (red) and DAPI (blue). Representative photographs of three independent experiments. The histogram in the bottom panel represents quantification of α-SMA antibody pixel intensity. FIG. 2B: RPE cells were serum-starved for 16 hours, then treated with mitomycin C (10 ng/ml) for 3 h. Thereafter, pretreated with 5Z-7-oxozeaenol (1 μM) or Dimethyl sulfoxide (DMSO) for 1 hour. Following this process a scratch was performed in the cell monolayer and the serum free medium was supplemented with TGF-β1 (2.5 ng/ml) or left unsupplemented. Scratches were photo-documented at the indicated times (top panel) and their width was measured using Image-J software. […] Bars are Mean±SD. FIG. 2C: RPE cells were serum-starved for 16 hours then pretreated with 5Z-7-oxozeaenol (1 μM) or SB431542 (10 μM), or DMSO for 1 hour. […] Total MMP-9 activities were processed by gelatin zymography (top panel) and the band intensity values were calculated by Quantity One® 1-D analysis software. […] Data is expressed as the Mean±SD.

RPE cells = test: Scratch assay, cell migration upon TGF-β1 stimulation; type: cell-based; settings: 1 μM, TGF-β1 2.5 ng/ml, 24 and 48 hours
Description: as §1, with “the Mean±SD. […]” for “the Mean±SD.”

Smad2/3 [1] = test: Smad2/3 phosphorylation by immuno-blot in W2b liver hepatocytes; type: cell-based; settings: 1 μM for 1 hour, TGF-β 2.5 ng/ml
Description: FIG. 10: Inhibition of TAK1 abolishes the activation of TGF-β cascades in liver cells. TGF-β1 up-regulates-Smad 2/3 and p38 activation and E-cadherin expression via TAK1 activity in hepatic cells. W2B liver hepatocytes cells were treated with or without 5Z-7-oxozeaenol followed by TGF-β treatment and Smad2/3 and p38 phosphorylation patterns were examined by immuno-blots. W2b liver hepatocytes cells were treated with or without 5Z-7-oxozeaenol (1 μM) for 1 hour followed by TGF-β treatment (2.5 ng/ml) for the indicated times. Smad2/3 and p38 phosphorylation patterns were examined by immuno-blots as described above.

Smad2/3 [2] = test: Smad2/3 phosphorylation by immuno-blot in RPE cells; type: cell-based
Description: FIG. 4A-4C: Inhibition of TAK1 abolishes the activation of TGF-β cascades. FIG. 4A: Serum-starved RPE cells were pretreated with or without with 5Z-7-oxozeaenol (1 μM) for 1 hour and then with TGF-β (2.5 ng/ml) for the indicated times. Total protein extracts were analyzed by western blot using the indicated antibodies. […] FIG. 4B: Levels of phospho-Smad2/3 were quantified and normalized to total Smad2/3 FIG. 4C: Statistical analysis of p-p38 and p-Smad3 activation normalized to p38 and Smad3 respectively, with or without TGF-β stimulation. The histograms present results of 5 independent experiments. Statistics were computed using student t-test (Two tailed distribution equal variance). Data is expressed as the Mean±SD. RPE cells were treated with or without 5Z-7-oxozeaenol followed by TGF-β1 treatment and Smad2/3 phosphorylation patterns were examined by immuno-blots. […] Upon TGF-β1 stimulation, the phosphorylation of p38 increased, reaching a peak at 60 min (FIGS. 4A and C).

c57Black mice = test: DSS-induced colitis in mice, fibrotic markers; type: in vivo; settings: DSS 1.5% eight days, IP 180 ng per animal daily
Description: C57black mice were treated with dextran sodium sulfate (DSS)-S 1.5% diluted in water for eight days and with or without 5Z-7 (1 uM) was IP injected total 180 ng for each animal Daily. After eight days the mice underwent evaluation to detect abnormalities in the Colom structure. N=14 mice for each group, Student T-test was used to determine the p value. The chart in FIG. 13 compares known markers that are considered as the main morphological phenotype for colitis. […] C57black mice were treated with dextran sodium sulfate (DSS)-S 1.5% diluted in water for eight days and with or without 5Z-7 (1 uM) IP injected total 180 ng for each animal daily. After eight days the mice underwent evaluation to detect abnormalities in the colon structure. In mice treated with DSS all markers of fibrosis such as: granulation, Transparency, fibrin and blood vessels were elevated by the DSS.

aortic ring explants = test: Aortic ring assay ex vivo; settings: aortic ring explants in Matrigel, 1 μM, 8 days
Description: FIG. 15: TAK1 regulates the fibrotic switch in aortic injury ex vivo. aortic ring explants were seeded in Matrigel with or without 5z-7 (1 μM) for 8 days and then photo-documented. The photographs shown are representative from one of three independent experiments (N=9). As can been in the control aortic ring explants there is growth of sprouts due to the injury/fibrotic process.

p38 = p38 phosphorylation by immuno-blot in HT29 colon cells; type: cell-based; settings: HT29 Human colon cells, TGF-β treatment, versus untreated cells
Description: FIG. 11. Inhibition of TAK1 abolishes the activation of TGF-β cascades in colon cells. TGF-β1 up-regulates-Smad 2/3 and p38 activation via TAK1 activity in colon cells. HT29 Human colon cells were treated with or without 5Z-7-oxozeaenol followed by TGF-β treatment. Smad2/3 and p38 phosphorylation patterns were examined by immuno-blots. HT29 Human colon cells were treated as in the previous examples with or without 5Z-7-oxozeaenol, followed by TGF-β treatment. Inhibition of TAK1 was assayed by observation of Smad2/3 and p38 phosphorylation patterns by immuno-blots.

Compound: COc1cc(O)c2c(c1)/C=C/C[C@H](O)[C@H](O)C(=O)/C=C\C[C@H](C)OC2=O [5Z-7-oxozeaenol]
- MMP-9 activity, fold higher than the control group (MMP-9): 1.59 fold
- migratory capacity of TGF-β1 stimulated cells (scratch assay) (RPE cells): abolished their migratory capacity
- Smad2/3 activation (Smad2/3 [1]): barely detectable
- Smad2/3 activation (phospho-Smad2/3) (Smad2/3 [2]; 1 μM for 1 hour then TGF-β 2.5 ng/ml): barely detectable
- ratio of phospho-Smad2/3 to total Smad2/3 (Smad2/3 [2]; 1 μM, TGF-β1-stimulated, each time point): abolished Smad2/3 activation
- fibrotic markers of colitis (granulation, Transparency, fibrin, blood vessels) (c57Black mice): reduce the fibrotic markers
- fibrotic effect resultant from the injury process (sprout growth) (aortic ring explants): abolish the fibrotic effect
- p38 phosphorylation (p38): significantly inhibited
